Legend:
[1] = tested on: XO bound to BAEC GAGs (endothelial cell-bound XO); assay: Inhibition of endothelial cell-bound XO, uric acid formation; type: cell-based, bovine; conditions: for Inhibition of endothelial cell GAG-bound XO (uric acid formation): even at concentrations above those tolerated clinically (e.g. 200 μM)
[2] = tested on: xanthine oxidase (XO); assay: O2•- formation from reaction of inhibitor with purified XO; type: biochemical; conditions: XO 10 mU/ml; allopurinol 50 μM, febuxostat 100 nM; cytochrome c reduction
[3] = target: XO; conditions: read-out: Ki for XO; pH 8.5; cited from earlier work
[4] = tested on: XO bound to BAEC GAGs (endothelial cell-bound XO); assay: Inhibition of endothelial cell-bound XO, extracellular O2•- by EPR with PPH; type: cell-based, bovine; conditions: xanthine 100 μM, 37°C
[5] = cited from earlier work
[6] = target: xanthine oxidase (XO), free in solution (Bos taurus, UniProt P80457); assay: Inhibition of XO free in solution, uric acid formation; type: biochemical; conditions: soluble and HS6B-XO, 0.96 and […] vs ref 16
[7] = target: HS6B-XO (GAG-immobilized xanthine oxidase) (Bos taurus, UniProt P80457)
[8] = target: soluble XO; conditions: read-out: Ki, soluble XO; cited from earlier work
[9] = target: GAG-bound XOR; conditions: read-out: Ki, GAG-bound XOR; cited from earlier work

Chain of HS6B-XO (GAG-immobilized xanthine oxidase) (P80457 whole entry): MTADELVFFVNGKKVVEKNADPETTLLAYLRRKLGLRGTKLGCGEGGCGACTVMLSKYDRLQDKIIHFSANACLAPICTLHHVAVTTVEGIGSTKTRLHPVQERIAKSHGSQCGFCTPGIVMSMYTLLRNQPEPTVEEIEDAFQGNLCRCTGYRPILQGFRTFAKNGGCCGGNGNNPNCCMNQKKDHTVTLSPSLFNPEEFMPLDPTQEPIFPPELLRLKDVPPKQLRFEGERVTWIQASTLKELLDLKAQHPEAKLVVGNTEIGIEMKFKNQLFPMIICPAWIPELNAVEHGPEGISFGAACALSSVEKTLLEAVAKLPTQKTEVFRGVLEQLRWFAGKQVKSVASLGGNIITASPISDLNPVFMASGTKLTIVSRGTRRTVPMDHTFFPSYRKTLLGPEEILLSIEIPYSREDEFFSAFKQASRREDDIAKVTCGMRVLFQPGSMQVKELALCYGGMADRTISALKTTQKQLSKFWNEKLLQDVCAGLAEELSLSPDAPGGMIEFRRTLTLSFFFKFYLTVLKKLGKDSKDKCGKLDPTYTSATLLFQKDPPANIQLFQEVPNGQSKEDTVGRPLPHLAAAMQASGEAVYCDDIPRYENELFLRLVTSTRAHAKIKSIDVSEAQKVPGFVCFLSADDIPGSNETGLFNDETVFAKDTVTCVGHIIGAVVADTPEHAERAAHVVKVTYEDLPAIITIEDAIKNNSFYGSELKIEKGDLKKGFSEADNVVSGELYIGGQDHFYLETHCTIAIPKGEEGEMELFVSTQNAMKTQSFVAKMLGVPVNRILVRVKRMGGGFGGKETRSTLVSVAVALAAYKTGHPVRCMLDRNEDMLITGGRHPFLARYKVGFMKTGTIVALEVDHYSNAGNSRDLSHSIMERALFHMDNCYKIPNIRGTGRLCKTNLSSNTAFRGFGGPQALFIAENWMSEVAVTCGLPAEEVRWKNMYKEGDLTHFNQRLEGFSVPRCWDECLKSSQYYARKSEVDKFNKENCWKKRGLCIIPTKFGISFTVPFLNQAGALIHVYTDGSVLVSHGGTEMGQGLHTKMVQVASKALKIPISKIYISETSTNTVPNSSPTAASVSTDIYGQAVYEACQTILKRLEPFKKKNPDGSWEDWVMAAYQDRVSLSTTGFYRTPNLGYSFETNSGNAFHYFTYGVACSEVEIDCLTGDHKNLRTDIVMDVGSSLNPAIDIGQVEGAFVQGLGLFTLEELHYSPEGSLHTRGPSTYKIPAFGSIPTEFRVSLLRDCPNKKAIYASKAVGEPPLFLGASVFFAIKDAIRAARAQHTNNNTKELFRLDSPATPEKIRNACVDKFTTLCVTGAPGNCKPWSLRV
Chain of xanthine oxidase (XO), free in solution (P80457 whole entry): as above

SMILES	Inhibition of endothelial cell GAG-bound XO (uric acid formation) [1]	O2•- formation on exposure of purified XO to the inhibitor [2]	Ki [3]	Reduction of cell-bound O2•- radical formation (EPR, PP• radical) ([4]; 200 μM)	Concentrations seen clinically [5]	Inhibition of uric acid formation from endothelial cell-bound XO ([1]; 25 nM febuxostat, xanthine 100 μM, 1 h)	Ki (pH 7.4) higher than previously reported Ki (pH 8.5) [6]	Concentration giving complete inhibition of uric acid and O2•- production from HS6B-XO [7]	Reduction of cell-bound O2•- production (EPR, PP• radical) ([4]; 50 nM)	Cmax ([5]; reported)	Ki [8]	Ki [9]
Oc1ncnc2[nH]ncc12 [allopurinol]	no more than 80%	significant O2 ^•- formation	0.7 µM	80%	20 to 90 µM							
Cc1nc(-c2ccc(OCC(C)C)c(C#N)c2)sc1C(=O)O [febuxostat]		no detectable O2 ^•-	0.00012 µM			completely inhibited	~ 8 fold	≤ 50 nM	100%	15 µM		
O=c1[nH]c(=O)c2c[nH]nc2[nH]1 [oxypurinol]	no more than 80%				20 to 90 µM						0.23 µM	0.405 µM
